Conditions: Crystal; for vapor or sublimation pressure: Transpiration method

CN1C(=O)NC(=O)C(C)(C)C1=O [1,5,5-trimethylbarbituric acid]
Conditions | vapor or sublimation pressure [kPa]
360 K | 0.00265
366.1 K | 0.00471
366.2 K | 0.00487
374.2 K | 0.00972
379.6 K | 0.01551
380.8 K | 0.01685
382.7 K | 0.02034
386.8 K | 0.02976
387.5 K | 0.02935
388.7 K | 0.03375
389.7 K | 0.03771
392.6 K | 0.04726
393.7 K | 0.05266
396.7 K | 0.06438
402.5 K | 0.09884
406.7 K | 0.1462
410.2 K | 0.187
411.7 K | 0.196
414.2 K | 0.2461
419.9 K | 0.3607
427.9 K | 0.6087

CN1C(=O)N(C)C(=O)C(C)(C)C1=O [1,3,5,5-tetramethylpyrimidine-2,4,6(1H,3H,5H)-trione]
Conditions | vapor or sublimation pressure [kPa]
323.2 K | 0.00344
326.2 K | 0.00457
328.2 K | 0.00555
332.1 K | 0.00801
334.2 K | 0.0099
336.2 K | 0.01132
338.2 K | 0.01415
340.1 K | 0.01647
342.9 K | 0.02036
346 K | 0.02803
347.4 K | 0.03182
349.2 K | 0.03555
350.1 K | 0.04039
351 K | 0.04459
351.1 K | 0.04429
352.9 K | 0.05014
355.2 K | 0.05715
356.2 K | 0.06561
360.2 K | 0.08943
365 K | 0.135
367.6 K | 0.168

CC1C(=O)N(C)C(=O)N(C)C1=O [1,3,5-trimethylbarbituric acid]
Conditions | Normal melting temperature [°C] | vapor or sublimation pressure [kPa]
322.5 K | – | 0.00289
328.4 K | – | 0.00528
332.6 K | – | 0.00792
338.6 K | – | 0.01482
343 K | – | 0.02296
349.4 K | – | 0.04451
354.5 K | – | 0.06767
358.6 K | – | 0.09676
DTA | 90.50 | –
